Measured values published in patent publication EP0043274A2, “Antithrombotic treatment” (priority 1980, dated 1982).
Values joined by “and” are separate entries in the source; they are usually repeats but may differ in a detail not shown here. Identical values can stand only once. Counter-ions that a name gives are not always drawn. Like-named read-outs stand apart in the source and are kept apart here.

How the values were obtained:
human plasma [1] = assay type: biochemical; conditions: for PTT (effect in words): in vitro
human plasma [2] = assay type: biochemical; conditions: for PT (effect in words): in vitro
[3] = amine hydrochlorides, control plasma 31.2
[4] = amine hydrochlorides, control plasma 31.3
[5] = amine hydrochlorides, control plasma 12.5
[6] = amine hydrochlorides, control plasma 13.0
[7] = amine bisulfites, control plasma 37.5 / 38.2
[8] = amine bisulfites, control plasma 37.8 / 39.2
[9] = amine bisulfites, control plasma 12.8 / 13.1
[10] = amine bisulfites, control plasma 13.1 / 13.0
[11] = amine hydrochlorides, control plasma 13.5
[12] = 0.5 mg/ml, two different days, control 42.6 / 42.10
[13] = coded agents 0.5mg/ml, […], control 43.38
[14] = coded agents 0.5mg/ml, […], control 12.92

2-octanome [Example 2-octanome, reference compound]
PTT (effect in words) (human plasma [1]; 0.5 mg/ml): minimal effect
PT (effect in words) (human plasma [2]; 0.5 mg/ml): minimal effect

CN1CCOCC1 [4-METHYL MORPHOLINE]
PTT REPLICATIONS 1 (human plasma [1]): 63.5
PTT REPLICATIONS 2 (human plasma [1]): 61.3
PTT REPLICATIONS 3 (human plasma [1]): 60.6
PT REPLICATIONS 1 (human plasma [2]): 21.3
PT REPLICATIONS 2 (human plasma [2]): 21.5
PT REPLICATIONS 3 (human plasma [2]): 20.4

C=CCN [ALLYL AMINE HYDROCHLORIDE, reference compound]
PTT 1 (human plasma [1]): 31.6
PTT 3 (human plasma [1]; [3]): 32.4
PTT 2 (human plasma [1]; [4]): 30.5
PT 3 (human plasma [2]): 14.4
PT 2 (human plasma [2]; [5]): 13.2
PT 1 (human plasma [2]; [6]): 13.2

C=CCN [ALLYL AMINE]
PTT REPLICATIONS 2 (human plasma [1]): 46.9
PTT REPLICATIONS 1 (human plasma [1]; [7]): 47.1
PTT REPLICATIONS 3 (human plasma [1]; [8]): 44.9
PT REPLICATIONS 1 (human plasma [2]; [9]): 16.1
PT REPLICATIONS 2 (human plasma [2]; [9]): 16.0
PT REPLICATIONS 3 (human plasma [2]; [10]): 15.6

Nc1ccccc1 [ANILINE]
PTT REPLICATIONS 2 (human plasma [1]): 44.9
PTT REPLICATIONS 1 (human plasma [1]; [7]): 45.4
PTT REPLICATIONS 3 (human plasma [1]; [8]): 42.9
PT REPLICATIONS 1 (human plasma [2]; [9]): 16.0
PT REPLICATIONS 2 (human plasma [2]; [9]): 16.9
PT REPLICATIONS 3 (human plasma [2]; [10]): 16.0

Cl.NC1CCCCC1 [CYCLOHEXYL AMINE HYDROCHLORIDE, reference compound]
PTT 1 (human plasma [1]): 32.5
PTT 3 (human plasma [1]; [3]): 34.3
PTT 2 (human plasma [1]; [4]): 32.7
PT 2 (human plasma [2]; [5]): 13.6
PT 1 (human plasma [2]; [6]): 13.8
PT 3 (human plasma [2]; [11]): 13.5

C=CCNCC=C.Cl [DIALLYL AMINE HYDROCHLORIDE, reference compound]
PTT 1 (human plasma [1]): 30.5
PTT 3 (human plasma [1]; [3]): 30.4
PTT 2 (human plasma [1]; [4]): 30.7
PT 2 (human plasma [2]; [5]): 13.1
PT 1 (human plasma [2]; [6]): 12.8
PT 3 (human plasma [2]; [11]): 13.5

C=CCNCC=C [DIALLYL AMINE]
PTT REPLICATIONS 2 (human plasma [1]): 39.6
PTT REPLICATIONS 1 (human plasma [1]; [7]): 38.8
PTT REPLICATIONS 3 (human plasma [1]; [8]): 39.1
PTT (effect in words) (human plasma [1]; concentration not given): low activity
PT REPLICATIONS 1 (human plasma [2]; [9]): 13.4
PT REPLICATIONS 2 (human plasma [2]; [9]): 13.7
PT REPLICATIONS 3 (human plasma [2]; [10]): 13.8
PT (effect in words) (human plasma [2]; concentration not given): low activity

NCCO [ETHANOL AMINE]
PTT REPLICATIONS 2 (human plasma [1]): 66.1
PTT REPLICATIONS 1 (human plasma [1]; [7]): 65.3
PTT REPLICATIONS 3 (human plasma [1]; [8]): 61.1
PT REPLICATIONS 1 (human plasma [2]; [9]): 19.3
PT REPLICATIONS 2 (human plasma [2]; [9]): 20.5
PT REPLICATIONS 3 (human plasma [2]; [10]): 18.4

O=C(O)CC(S)C(=O)O (stereo not shown) [Example A2, Mercaptosuccinic acid, reference compound]
PTT (human plasma [1]; [12]): 52.6 s
PTT (human plasma [1]; [13]): 48.70 s
PT (human plasma [2]): 14.7 s
PT (human plasma [2]; [14]): 14.60 s

O=C(O)/C(O)=C(/O)C(=O)O [Example A3, Dihydroxymaleic acid 2 H2O, reference compound]
PTT (human plasma [1]; [13]): 53.00 s
PT (human plasma [2]; [14]): 14.95 s

C1COCCN1 [MORPHOLINE]
PTT REPLICATIONS 1 (human plasma [1]): 66.8
PTT REPLICATIONS 2 (human plasma [1]): 61.8
PTT REPLICATIONS 3 (human plasma [1]): 51.7
PT REPLICATIONS 1 (human plasma [2]): 19.3
PT REPLICATIONS 2 (human plasma [2]): 21.0
PT REPLICATIONS 3 (human plasma [2]): 17.5

CN(C)C1CCCCC1 [N,N-DIMETHYL CYCLOHEXYL AMINE]
PTT REPLICATIONS 2 (human plasma [1]): 62.1
PTT REPLICATIONS 1 (human plasma [1]; [7]): 60.1
PTT REPLICATIONS 3 (human plasma [1]; [8]): 58.9
PT REPLICATIONS 1 (human plasma [2]; [9]): 18.9
PT REPLICATIONS 2 (human plasma [2]; [9]): 20.4
PT REPLICATIONS 3 (human plasma [2]; [10]): 19.8

CNC1CCCCC1 [N-METHYL CYCLOHEXYL AMINE]
PTT REPLICATIONS 2 (human plasma [1]): 61.8
PTT REPLICATIONS 1 (human plasma [1]; [7]): 60.6
PTT REPLICATIONS 3 (human plasma [1]; [8]): 61.6
PT REPLICATIONS 1 (human plasma [2]; [9]): 20.5
PT REPLICATIONS 2 (human plasma [2]; [9]): 20.3
PT REPLICATIONS 3 (human plasma [2]; [10]): 20.4

Cl.c1ccncc1 [PYRIDINE HYDROCHLORIDE (CRYSTALS), PYRIDINE HYDROCHLORIDE, reference compound]
PTT 1 (human plasma [1]; HYDROCHLORIDE): 31.3
PTT 2 (human plasma [1]; HYDROCHLORIDE): 31.1
PTT 3 (human plasma [1]; HYDROCHLORIDE): 32.2
PT 1 (human plasma [2]; HYDROCHLORIDE): 12.9
PT 2 (human plasma [2]; HYDROCHLORIDE): 12.8
PT 3 (human plasma [2]; HYDROCHLORIDE): 14.0

Cl.c1ccncc1 [PYRIDINE HYDROCHLORIDE (POWDER), PYRIDINE HYDROCHLORIDE, reference compound]
PTT 1 (human plasma [1]; HYDROCHLORIDE): 30.5
PTT 2 (human plasma [1]; HYDROCHLORIDE): 30.8
PTT 3 (human plasma [1]; HYDROCHLORIDE): 31.1
PT 1 (human plasma [2]; HYDROCHLORIDE): 12.6
PT 2 (human plasma [2]; HYDROCHLORIDE): 12.5
PT 3 (human plasma [2]; HYDROCHLORIDE): 13.8

c1ccncc1 [PYRIDINE]
PTT REPLICATIONS 1 (human plasma [1]): 80.0
PTT REPLICATIONS 2 (human plasma [1]): 71.1
PTT REPLICATIONS 3 (human plasma [1]): 59.3
PT REPLICATIONS 1 (human plasma [2]): 29.3
PT REPLICATIONS 2 (human plasma [2]): 27.8
PT REPLICATIONS 3 (human plasma [2]): 27.2

O=S([O-])S(=O)(=O)[O-].[K+].[K+] [Potassium Metabisulfite]
PTT(seconds) Exp. 1 A (human plasma [1]): 77.6 s and 91.6 s
PTT (human plasma [1]; [12]): 80.60 s
PTT(seconds) Exp. 2 A (human plasma [1]; Active Agent 0.5/ml, test sequences A and B, control 50.5 (A), 44.5 (B)): 111.3 s and 105.2 s
PTT (human plasma [1]; [13]): 83.84 s
PT (human plasma [2]): 18.76 s
PT(seconds) Exp. 1 A (human plasma [2]): 18.3 s and 20.4 s
PT(seconds) Exp. 2 A (human plasma [2]): 22.0 s
PT (human plasma [2]; [14]): 19.34 s

O=S(O)CO [SO2, Sodium formaldehyde sulfoxalate, reference compound]
PTT sec (human plasma [1]; [12]): 45.1 (53.8) sec
PTT (human plasma [1]; [13]): 49.22 s
PT (human plasma [2]): 13.8 s
PT (human plasma [2]; [14]): 14.94 s
